These results are taken from patent EP0942906B1, “COMPOUNDS USEFUL FOR INHIBITION OF FARNESYL PROTEIN TRANSFERASE” (SCHERING CORPORATION, priority 1996, dated 1998).

Assay [1] has as its target farnesyl protein transferase (Homo sapiens, UniProt P49354+P49356). Kind of assay: FPT IC50, inhibition of farnesyl protein transferase, in vitro enzyme assay (procedure of WO 95/10516). Format: biochemical. To be noted: ras form not stated; range stated for the listed group of compounds; read-out: FPT IC50. The method, then: (§1) FPT IC50 (inhibition of farnesyl protein transferase, in vitro enzyme assay) and COS Cell IC50 (Cell-Based Assay) were determined following the assay procedures described in WO 95/10516, published April 20, 1995. GGPT IC50 (inhibition of geranylgeranyl protein transferase, in vitro enzyme assay), Cell Mat Assay, and anti-tumor activity (in vivo anti-tumor studies) could be determined by the assay procedures described in WO 95/10516.

The test system of another assay is Human tumor cells. Kind of assay: Soft Agar Assay (anchorage-independent growth, colony count after MTT staining). Format: cell-based. The note with it: range stated for the listed group of compounds. The method, then:
Anchorage-independent growth is a characteristic of tumorigenic cell lines. Human tumor cells are suspended in growth medium containing 0.3% agarose and an indicated concentration of a farnesyl transferase inhibitor. The solution is overlayed onto growth medium solidified with 0.6% agarose containing the same concentration of farnesyl transferase inhibitor as the top layer. After the top layer is solidified, plates are incubated for 10-16 days at 37°C under 5% CO2 to allow colony outgrowth. After incubation, the colonies are stained by overlaying the agar with a solution of MTT (3-[4,5-dimethylthiazol-2-yl]-2.5-diphenyltetrazolium bromide, Thiazolyl blue) (1 mg/mL in PBS). Colonies can be counted and the IC50's can be determined.

Another assay relates to COS Cell. The assay can be described thus: COS Cell IC50 (Cell-Based Assay, procedure of WO 95/10516). To be noted: range stated for the listed group of compounds, read-out: Cos Cell. The method, then: as §1

Sequence of farnesyl protein transferase (P49356 whole entry, one chain of several): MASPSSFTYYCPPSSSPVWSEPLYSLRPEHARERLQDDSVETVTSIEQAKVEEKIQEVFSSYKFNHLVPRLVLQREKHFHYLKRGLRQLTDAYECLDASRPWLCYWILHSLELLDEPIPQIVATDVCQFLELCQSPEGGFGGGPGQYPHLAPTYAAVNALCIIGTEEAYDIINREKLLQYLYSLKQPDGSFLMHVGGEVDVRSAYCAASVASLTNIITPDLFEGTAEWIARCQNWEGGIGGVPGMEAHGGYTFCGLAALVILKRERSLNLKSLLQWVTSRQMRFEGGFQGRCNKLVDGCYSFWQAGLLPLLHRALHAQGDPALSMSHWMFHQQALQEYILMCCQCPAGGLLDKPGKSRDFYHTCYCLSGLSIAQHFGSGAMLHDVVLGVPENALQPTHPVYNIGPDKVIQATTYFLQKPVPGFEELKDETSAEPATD

As to `O=C1NC(=O)C(CC(=O)N2CCC(CC(=O)N3CCC([C@H]4c5ncc(Br)cc5CCc5cc(Cl)cc(Br)c54)CC3)CC2)N1` (stereo partly drawn) [Compound 77.0-B], the IC50 was 0.7 to 18 nM in assay [1], ≥ 19.5 nM with Human tumor cells and ≥ 9 nM in the assay with COS Cell.
Taken in the same sequence, the figures for `CC(C)(C)OC(=O)NCCCC(=O)N1CCC(CC(=O)N2CCC([C@H]3c4ncc(Br)cc4CCc4cc(Cl)cc(Br)c43)CC2)CC1` [Compound 89.0-B] were 0.7 to 18 nM, ≥ 19.5 nM and ≥ 9 nM.
For `CONC(=O)C(=O)N1CCC(CC(=O)N2CCC([C@H]3c4ncc(Br)cc4CCc4cc(Cl)cc(Br)c43)CC2)CC1` [Compound 49.0-B], in that order: 0.7 to 18 nM, ≥ 19.5 nM and ≥ 9 nM.
